Test results: patent US20120328638A1, “MYBL2 PEPTIDES AND VACCINES CONTAINING THE SAME” (Onco Therapy Science, Inc., priority 2009, published 2012)
Entries after “also recorded” stand apart in the source; their conditions may differ. Ends that are not written are not given here.

How the values were obtained:
[1] = tested on: peptide-pulsed T2 cells; test: IFN-gamma ELISPOT assay of peptide specific CTL activity after in vitro CTL induction; assay type: cell-based, human; settings: against peptide-pulsed T2 cells compared with control not pulsed; PBMCs of HLA-A*0201 positive donor; day 21
Text: Monocyte-derived dendritic cells (DCs) were used as antigen-presenting cells (APCs) to induce cytotoxic T lymphocyte (CTL) responses against peptides presented on human leukocyte antigen (HLA). DCs were generated in vitro as described elsewhere (Nakahara S et al., Cancer Res 2003 Jul. 15, 63(14): 4112-8). Specifically, peripheral blood mononuclear cells (PBMCs) isolated from a normal volunteer (HLA-A*0201 positive) by Ficoll-Plaque (Pharmacia) solution were separated by adherence to a plastic tissue culture dish (Becton Dickinson) so as to enrich them as the monocyte fraction. The monocyte-enriched population was cultured in the presence of 1000 U/ml of granulocyte-macrophage colony-stimulating factor (R&D System) and 1000 U/ml of interleukin (IL)-4 (R&D System) in AIM-V Medium (Invitrogen) containing 2% heat-inactivated autologous serum (AS). After 7 days of culture, the cytokine-induced DCs were pulsed with 20 microgram/ml of each of the synthesized peptides in the presence of 3 microgram/ml of beta 2-microglobulin for 3 hrs at 37 degrees C. in AIM-V Medium. The generated cells appeared to express DC-associated molecules, such as CD80, CD83, CD86 and HLA class II, on their cell surfaces (data not shown). […]

[2] = tested on: target cells pulsed with the corresponding peptide (T2); test: IFN-gamma ELISA assay of established CTL line and CTL clone; assay type: cell-based, human
Procedure: CTLs were expanded in culture using the method similar to the one described by Riddell et al. (Walter E A et al., N Engl J Med 1995 Oct. 19, 333(16): 1038-44; Riddell S R et al., Nat Med 1996 February, 2(2): 216-23). A total of 5×10^4 CTLs were suspended in 25 ml of AIM-V/5% AS medium with 2 kinds of human B-lymphoblastoid cell lines, inactivated by Mitomycin C, in the presence of 40 ng/ml of anti-CD3 monoclonal antibody (Pharmingen). One day after initiating the cultures, 120 IU/ml of IL-2 were added to the cultures. The cultures were fed with fresh AIM-V/5% AS medium containing 30 IU/ml of IL-2 on days 5, 8 and 11 (Tanaka H et al., Br J Cancer 2001 Jan. 5, 84(1): 94-9; Umano Y et al., Br J Cancer 2001 Apr. 20, 84(8): 1052-7; Uchida N et al., Clin Cancer Res 2004 Dec. 15, 10(24): 8577-86; Suda T et al., Cancer Sci 2006 May, 97(5): 411-9; Watanabe T et al., Cancer Sci 2005 August, 96(8): 498-506).
The dilutions were made to have 0.3, 1, and 3 CTLs/well in 96 round-bottomed micro titer plate (Nalge Nunc International). CTLs were cultured with 1×10^4 cells/well of 2 kinds of human B-lymphoblastoid cell lines, 30 ng/ml of anti-CD3 antibody, and 125 U/ml of IL-2 in a total of 150 microliter/well of AIM-V Medium containing 5% AS. 50 microliter/well of IL-2 were added to the medium 10 days later so to reach a final concentration of 125 U/ml IL-2. […]

[3] = tested on: COS7 cells transfected with MYBL2 and HLA-A*0201; test: Specific CTL activity against target cells exogenously expressing MYBL2 and HLA-A*0201; assay type: cell-based, African green monkey
Text: The cDNA encoding an open reading frame of target genes or HLA-A*0201 was amplified by PCR. The PCR-amplified product was cloned into expression vector. The plasmids were transfected into COS7, which is the target genes and HLA-A*0201-null cell line, using lipofectamine 2000 (Invitrogen) according to the manufacturer's recommended procedures. After 2 days from transfection, the transfected cells were harvested with versene (Invitrogen) and used as the stimulator cells (5×10^4 cells/well) for CTL activity assay.
The established CTL clone raised against MYBL2-A02-9-144 (SEQ ID NO: 3) was examined for the ability to recognize target cells that express MYBL2 and HLA-A*0201 molecule. […] COS7 cells transfected with either full length of MYBL2 or HLA-A* 0201 were prepared as the controls.

Sequence	IFN-gamma production of CTLs stimulated with peptide (ELISPOT) [1]	IFN-gamma production of CTL clone (ELISA) ([2]; CTL clone established by limiting dilution, target cells pulsed with peptide vs not pulsed)	IFN-gamma production of CTL line (ELISA) ([2]; CTL line from well #8, target cells pulsed with peptide vs without peptide pulse)	Specific CTL activity of CTL clone against COS7 cells expressing both MYBL2 and HLA-A*0201 ([3]; COS7 transfected with both full length MYBL2 and HLA-A*0201)	Specific CTL activity of CTL clone against control COS7 cells ([3]; COS7 transfected with either full length MYBL2 or HLA-A*0201 alone)
RIICEAHKV [MYBL2-A02-9-144, RIICEAHKV]	potent IFN-gamma production	potent IFN-gamma production	potent IFN-gamma production	potent CTL activity; also recorded: specific CTL activity	no significant specific CTL activity was detected
VLPPRQPSA [MYBL2-A02-9-355, VLPPRQPSA]	specific IFN-gamma production was not observed; also recorded: no specific IFN-gamma production was detected				
